Results reported in patent US20170367390A1, “USE OF ELLAGIC ACID DIHYDRATE IN FOOD PRODUCTS AND NUTRACEUTICALS” (HALO LIFE SCIENCE, LLC, priority 2014, published 2017).
Entries after “also recorded” stand apart in the source; their conditions may differ.

Assays:
[1] = Saturation of test compound in 100% DMSO; format: physicochemical
Method: General Procedure. For Examples 2 through 7, all test compounds of interest were initially dissolved in 100% DMSO. Estimated saturation occurred at approximately 4 mM for ellagic acid dihydrate. The saturated solution was diluted 1:10 in 1×PBS; creating a 100× stock solution of 400 μM ellagic acid dihydrate. Working concentrations (1×), 4 μM, and more dilute concentrations of ellagic acid dihydrate were created by 1:10 dilutions into 0.1% DMSO. The resulting six dilutions ranged from 4 μM to 0.04 nM. Dose curves were analyzed using either Harmony software on the Operetta (Perkin Elmer) or Excel (Microsoft) for flow cytometry, which was performed on a BD Accuri (BD Biosciences).

[2] = tested on: mouse myoblast C2C12 cells; assay: Glucose uptake, 2-NBDG labeling, flow cytometry, C2C12; format: cell-based
Method: Cellular assays were performed using mouse myoblast C2C12 cells and MEF cells. […] Increased glucose uptake was indicated as increasing signal of 2-NBDG ([…]) in cells. Glucose uptake assays were carried out in a final incubation volume of 50 μl consisting of, 2-NBDG), (100 μM) in 1× Phosphate Buffered Saline w/Ca+, Mg+ (PBS++). The same buffer was used for washing cells. Insulin was used as a positive control. All testing compounds were prepared in 10% DMSO and diluted 1:100 for a final concentration of 0.1% DMSO (vehicle). Cells were culture to 70-90% confluence and then washed twice with PBS++. Cells were incubated for 30 minutes at 37° C. in PBS++. Nuclear stain, HCS CellMask stain (blue, Invitrogen), and/or testing compounds (ellagic acid dihydrate, insulin, or vehicle) were added. Cells were incubated for 30 min at 37° C. Cells were washed twice with PBS++ and incubated with 2-NBDG for 10 minutes. Cells were washed thrice with PBS++ and then imaged in PBS++. Alternatively, the final PBS wash was removed and cells were incubated with Accutase (Invitrogen) for 10 min at 37° C., neutralized with 10% FBS in 1×PBS, and analyzed by flow cytometry. An additional experiment was performed to measure glucose uptake in C2Cl2 cells exposed to metformin, insulin and ellagic acid dihydrate 2 (batch 2). FIG. 5C.

AKT = assay: AKT:Phos AKT ratio by immunocytochemistry, high-content imaging in C2C12; format: cell-based, mouse; details: serum starved C2C12, 30 minutes; 4 nM-4 μM for insulin and ellagic acid dihydrate
Method: Stimulation of AKT pathways and MAPK pathways in ellagic acid dihydrate, metformin, and insulin treated cell cultures was performed. Insulin stimulates glucose uptake into cells by increasing GLUT4 activation, and AKT, specifically phos-AKT, signaling alters GLUT4 translocation. […] Cellular assays were performed using mouse myoblast C2C12 cells. […] Serum starved cells (1 hr) were treated for 30 minutes with each of the tested compounds.

[3] = Weight loss and blood glucose in female SWV mice with STZ induced diabetes, 30 days gavage; format: in vivo, mouse; details: STZ diabetic mice; predicted from in vitro data of Example 5
Method: Weight loss and blood glucose in diabetes induced mice treated with ellagic acid was determined and weight loss and blood glucose in mice treated with ellagic acid dihydrate may be determined by the following procedures. Induction of Diabetes: Diabetes is induced in mice by intraperitoneal injection with Streptozotocin (STZ 40 mg/kg) daily for five days. The mice are considered hyperglycemic when the glucose level of each dam is above 200 mg/dL. The mice are fasted for 4 hours before STZ injection and glucose measurement. Treatment: The mice are treated daily for thirty days with ellagic acid or control in the form of a supplemental pill homogenized and suspended in 25% water solution of Cremophor EL. The mice are treated for one month via gavage using the human equivalent dose of 122.4 mg pill/kg of subject (40.6 mg ellagic acid/kg of the subject), the human equivalent does of 40.6 mg ellagic acid/kg of the subject using 98% pure ellagic acid, or control vehicle (25% water solution of Cremophor EL). The human equivalent dose is calculated as described in Example 8. Treatments would start two weeks after the last STZ injection in which hyperglycemia is confirmed in the diabetic mice. The mice would be weighed daily and glucose levels would be measured in fasted animals every five days.

Activity level in mice = format: in vivo, mouse; details: predicted from in vitro data of Example 5
Description: Activity levels in mice treated with ellagic acid dihydrate may be quantified by several procedures, such as those outlined in Turri, M. et al.; QTL Analysis Identifies Multiple Behavioral Dimensions in Ethological Tests of Anxiety in Laboratory Mice; Current Biology; 2001; 11(10): 725-734. Two examples of procedures taught therein follows. Gross Locomotor Activity in Home Cage: Mice are caged singly several days prior to home cage activity monitoring and subsequent testing. Activity in home cages are measured during the first 2 hours of the dark cycle on two consecutive days. Two infrared photo emitter-detector pairs, located outside the clear plastic home cage that divide the cage into three equal areas, are used to record gross locomotor activity on the floor of the home cage as the animal breaks the photo beams. The beam-break activity score consists of the square root of the number of beam breaks for each detector summed across the two test days. Magnitude of Activity in Home Cage: Mice are caged singly several days prior to home cage activity monitoring and subsequent testing. Activity in home cages are measured during the first 2 hours of the dark cycle on two consecutive days. An infrared motion detector located above the top of the home cage is employed to converts all motion sensed within the home cage into arbitrary units, based on the magnitude of activity detected.

SMILES: O.O.O=c1oc2c(O)c(O)cc3c(=O)oc4c(O)c(O)cc1c4c23 [ellagic acid dihydrate]
- Estimated saturation [1]: approximately 4 mM
- increase in glucose uptake compared with metformin ([2]; C2C12, at 4000 nm, FIG. 5C (ellagic acid dihydrate batch 2)): greater increase in glucose uptake than metformin
- dose effect for increasing glucose uptake ([2]; C2C12, flow cytometry, 2-NBDG): dose effect for increasing glucose uptake
- glucose uptake (2-NBDG signal) relative to vehicle ([2]; C2C12, flow cytometry, vehicle 0.1% DMSO): significantly greater than vehicle treated
- increase in glucose uptake in myoblasts relative to fibroblasts ([2]; C2C12 myoblasts versus MEF fibroblasts): ~4 ×
- glucose uptake relative to insulin ([2]; myoblasts (C2C12), at most concentrations tested / equal concentrations, dihydrate): significantly more glucose uptake relative to insulin; also recorded: exceeded the uptake induced by insulin
- AKT:Phos AKT ratio (log 2 scale) relative to vehicle treated cells (AKT): increase in AKT relative to Phos-AKT signal
- mean glucose level values compared to mice treated with ellagic acid [3]: lower mean glucose level values
- weight loss compared to mice treated with ellagic acid [3]: greater decrease in weight loss
- activity level compared to mice treated with ellagic acid (Activity level in mice): significantly greater activity level
